Measurements as given in patent publication US12466809B2, “CDK2/5 degraders and uses thereof” (DANA-FARBER CANCER INSTITUTE, INC., priority 2019, dated 2025).

How the values were obtained:
CDK2/Cyclin A = CDK2/Cyclin A (Homo sapiens (Human), UniProt P24941); assay: Invitrogen Z'-LYTE kinase assay CDK2/Cyclin A (assay ID 315, Km app, 10-point titration); format: biochemical; conditions: Km app ATP
Source text: (§1) CDK2 and CDK5 IC50 data were attained through the use of Invitrogen™ commercial assays. The method for CDK2 (assay ID: 315, kinase|Z'-LYTE™|CDK2/Cyclin A|Km app) used a 10-point titration. The method for CDK5 (assay ID: 318, kinase|Z'-LYTE™|CDK5/p25|Km app) used a 10-point titration.

CDK5/p25 = CDK5/p25 (Homo sapiens (Human), UniProt Q00535); assay: Invitrogen Z'-LYTE kinase assay CDK5/p25 (assay ID 318, Km app, 10-point titration); format: biochemical; conditions: CDK5/p25, Km app ATP
Chain of CDK5/p25 (Q00535 whole entry): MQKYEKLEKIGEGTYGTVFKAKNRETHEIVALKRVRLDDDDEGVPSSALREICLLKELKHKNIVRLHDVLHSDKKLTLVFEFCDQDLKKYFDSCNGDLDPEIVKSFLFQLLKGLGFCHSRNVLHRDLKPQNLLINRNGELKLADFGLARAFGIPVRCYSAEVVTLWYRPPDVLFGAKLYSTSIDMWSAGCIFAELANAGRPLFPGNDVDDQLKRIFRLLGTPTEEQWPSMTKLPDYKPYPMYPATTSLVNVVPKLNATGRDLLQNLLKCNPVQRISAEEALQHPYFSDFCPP
Chain of CDK5/p25 (Q15078 99-307 partner): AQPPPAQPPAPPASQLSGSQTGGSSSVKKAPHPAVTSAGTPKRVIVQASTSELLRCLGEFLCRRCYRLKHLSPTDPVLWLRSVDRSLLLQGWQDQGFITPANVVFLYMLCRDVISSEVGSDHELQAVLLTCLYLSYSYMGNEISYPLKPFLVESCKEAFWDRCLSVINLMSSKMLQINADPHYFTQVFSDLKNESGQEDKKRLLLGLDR
Source text: as §1

| IC50 (CDK2/Cyclin A) [nM] | IC50 (CDK5/p25) [nM] | SMILES |
| --- | --- | --- |
| 9.1 | 4.3 | Cc1ncsc1-c1ccc([C@H](C)NC(=O)[C@@H]2C[C@@H](O)CN2C(=O)[C@@H](NC(=O)CCCCC(=O)NCCS(=O)(=O)N2CCC(Nc3ncc(Br)c(Nc4cccc(F)c4C(N)=O)n3)CC2)C(C)(C)C)cc1 [Compound 10, N^1-(2-((4-((5-bromo-4-((2-carbamoyl-3-fluorophenyl)amino)pyrimidin-2-yl)amino)piperidin-1-yl)sulfonyl)ethyl)-N^6—((S)-1-((2S,4R)-4-hydroxy-2-(((S)-1-(4-(4-methylthiazol-5-yl)phenyl)ethyl)carbamoyl)pyrrolidin-1-yl)-3,3-dimethyl-1-oxobutan-2-yl)adipamide] |
| 347 | 241 | NC(=O)c1c(F)cccc1Nc1nc(N[C@@H]2CCCN(S(=O)(=O)CCNC(=O)CCCCCCCCOc3cccc4c3C(=O)N(C3CCC(=O)NC3=O)C4=O)C2)ncc1Br (stereo partly drawn) [Compound 8, 2-((5-bromo-2-(((3R)-1-((2-(9-((2-(2,6-dioxopiperidin-3-yl)-1,3-dioxoisoindolin-4-yl)oxy)nonanamido)ethyl)sulfonyl)piperidin-3-yl)amino)pyrimidin-4-yl)amino)-6-fluorobenzamide] |
| 1.7 | 1.4 | Cc1cc(S(=O)(=O)NCCOCCOCCOCCOCCNC(=O)COc2cccc3c2C(=O)N(C2CCC(=O)NC2=O)C3=O)ccc1Nc1ncc(Br)c(Nc2cccc(F)c2C(N)=O)n1 (stereo not drawn) [Compound 46, 2-((5-bromo-2-((4-(N-(1-((2-(2,6-dioxopiperidin-3-yl)-1,3-dioxoisoindolin-4-yl)oxy)-2-oxo-6,9,12,15-tetraoxa-3-azaheptadecan-17-yl)sulfamoyl)-2-methylphenyl)amino)pyrimidin-4-yl)amino)-6-fluorobenzamide] |
| 19.4 | 18.2 | Cc1cc(S(=O)(=O)NCCCCCCCCCCNC(=O)COc2cccc3c2C(=O)N(C2CCC(=O)NC2=O)C3=O)ccc1Nc1ncc(Br)c(Nc2cccc(F)c2C(N)=O)n1 (stereo not drawn) [Compound 47, 2-((5-bromo-2-((4-(N-(10-(2-((2-(2,6-dioxopiperidin-3-yl)-1,3-dioxoisoindolin-4-yl)oxy)acetamido)decyl)sulfamoyl)-2-methylphenyl)amino)pyrimidin-4-yl)amino)-6-fluorobenzamide] |
| 4.7 | 5.8 | O=C(CCOCCOCCOCCOCCNc1cccc2c1C(=O)N(C1CCC(=O)NC1=O)C2=O)NCCS(=O)(=O)N1CCC(Nc2ncc(Br)c(Nc3cccc4c3C(=O)NC4)n2)CC1 (stereo not drawn) [Compound 20, N-(2-((4-((5-bromo-4-((3-oxoisoindolin-4-yl)amino)pyrimidin-2-yl)amino)piperidin-1-yl)sulfonyl)ethyl)-1-((2-(2,6-dioxopiperidin-3-yl)-1,3-dioxoisoindolin-4-yl)amino)-3,6,9,12-tetraoxapentadecan-15-amide] |
| 8.1 | 7.1 | Cc1cc(Nc2ncc(Br)c(Nc3cccc(F)c3C(N)=O)n2)ccc1S(=O)(=O)NCCOCCOCCOCCOCCNc1cccc2c1C(=O)N(C1CCC(=O)NC1=O)C2=O (stereo not drawn) [Compound 25, 2-((5-bromo-2-((4-(N-(14-((2-(2,6-dioxopiperidin-3-yl)-1,3-dioxoisoindolin-4-yl)amino)-3,6,9,12-tetraoxatetradecyl)sulfamoyl)-3-methylphenyl)amino)pyrimidin-4-yl)amino)-6-fluorobenzamide] |
|  | 4.3 | NC(=O)c1c(F)cccc1Nc1nc(NC2CCN(S(=O)(=O)CCNC(=O)CCC(=O)NCCCCCNc3cccc4c3C(=O)N(C3CCC(=O)NC3=O)C4=O)CC2)ncc1Br (stereo not drawn) [Compound 13, N^1-(2-((4-((5-bromo-4-((2-carbamoyl-3-fluorophenyl)amino)pyrimidin-2-yl)amino)piperidin-1-yl)sulfonyl)ethyl)-N^4-(5-((2-(2,6-dioxopiperidin-3-yl)-1,3-dioxoisoindolin-4-yl)amino)pentyl)succinamide] |
| 2 | 2.9 | Cc1cc(S(=O)(=O)NCCCCN2CCN(C(=O)COc3cccc4c3C(=O)N(C3CCC(=O)NC3=O)C4=O)CC2)ccc1Nc1ncc(Br)c(Nc2cccc(F)c2C(N)=O)n1 (stereo not drawn) [Compound 48, 2-((5-bromo-2-((4-(N-(4-(4-(2-((2-(2,6-dioxopiperidin-3-yl)-1,3-dioxoisoindolin-4-yl)oxy)acetyl)piperazin-1-yl)butyl)sulfamoyl)-2-methylphenyl)amino)pyrimidin-4-yl)amino)-6-fluorobenzamide] |
|  | 18.2 | NC(=O)c1c(F)cccc1Nc1nc(NC2CCN(S(=O)(=O)CCNC(=O)CCCCCCCCCCc3cccc4c3CN(C3CCC(=O)NC3=O)C4=O)CC2)ncc1Br (stereo not drawn) [Compound 15, 2-((5-bromo-2-((1-((2-(11-(2-(2,6-dioxopiperidin-3-yl)-1-oxoisoindolin-4-yl)undecanamido)ethyl)sulfonyl)piperidin-4-yl)amino)pyrimidin-4-yl)amino)-6-fluorobenzamide] |
| 7.3 | 8.4 | NC(=O)c1c(F)cccc1Nc1nc(NC2CCN(S(=O)(=O)CCNC(=O)CCOCCOCCOCCOCCOCCOCCOCCOCCNc3cccc4c3C(=O)N(C3CCC(=O)NC3=O)C4=O)CC2)ncc1Br (stereo not drawn) [Compound 4, N-(2-((4-((5-bromo-4-((2-carbamoyl-3-fluorophenyl)amino)pyrimidin-2-yl)amino)piperidin-1-yl)sulfonyl)ethyl)-1-((2-(2,6-dioxopiperidin-3-yl)-1,3-dioxoisoindolin-4-yl)amino)-3,6,9,12,15,18,21,24-octaoxaheptacosan-27-amide] |
| 17.1 | 11.8 | NC(=O)c1c(F)cccc1Nc1nc(NC2CCN(S(=O)(=O)CCNC(=O)CCCCCCCOc3cccc4c3C(=O)N(C3CCC(=O)NC3=O)C4=O)CC2)ncc1Br (stereo not drawn) [Compound 6, 2-((5-bromo-2-((1-((2-(8-((2-(2,6-dioxopiperidin-3-yl)-1,3-dioxoisoindolin-4-yl)oxy)octanamido)ethyl)sulfonyl)piperidin-4-yl)amino)pyrimidin-4-yl)amino)-6-fluorobenzamide] |
| 10.5 | 7.6 | O=C(CCCCCCCCOc1cccc2c1C(=O)N(C1CCC(=O)NC1=O)C2=O)NCCS(=O)(=O)N1CCC(Nc2ncc(Br)c(Nc3cccc4c3C(=O)NC4)n2)CC1 (stereo not drawn) [Compound 21, N-(2-((4-((5-bromo-4-((3-oxoisoindolin-4-yl)amino)pyrimidin-2-yl)amino)piperidin-1-yl)sulfonyl)ethyl)-9-((2-(2,6-dioxopiperidin-3-yl)-1,3-dioxoisoindolin-4-yl)oxy)nonanamide] |
|  | 4370 | O=C(CCCCCCCCC#Cc1cccc2c1CN(C1CCC(=O)NC1=O)C2=O)NCCS(=O)(=O)N1CCC(Nc2ncc(Br)c(Nc3cccc4c3OCO4)n2)CC1 (stereo not drawn) [Compound 16, N-(2-((4-((4-(benzo[d][1,3]dioxol-4-ylamino)-5-bromopyrimidin-2-yl)amino)piperidin-1-yl)sulfonyl)ethyl)-11-(2-(2,6-dioxopiperidin-3-yl)-1-oxoisoindolin-4-yl)undec-10-ynamide] |
| 10.9 | 7 | NC(=O)c1c(F)cccc1Nc1nc(Nc2ccc(S(=O)(=O)NCCOCCOCCOCCOCCNc3cccc4c3C(=O)N(C3CCC(=O)NC3=O)C4=O)cc2)ncc1Br (stereo not drawn) [Compound 23, 2-((5-bromo-2-((4-(N-(14-((2-(2,6-dioxopiperidin-3-yl)-1,3-dioxoisoindolin-4-yl)amino)-3,6,9,12-tetraoxatetradecyl)sulfamoyl)phenyl)amino)pyrimidin-4-yl)amino)-6-fluorobenzamide] |
|  | 31.2 | NC(=O)c1c(F)cccc1Nc1nc(NC2CCN(S(=O)(=O)CCNC(=O)CCCCCCCCC#Cc3cccc4c3CN(C3CCC(=O)NC3=O)C4=O)CC2)ncc1Br (stereo not drawn) [Compound 14, 2-((5-bromo-2-((1-((2-(11-(2-(2,6-dioxopiperidin-3-yl)-1-oxoisoindolin-4-yl)undec-10-ynamido)ethyl)sulfonyl)piperidin-4-yl)amino)pyrimidin-4-yl)amino)-6-fluorobenzamide] |
| 6.4 | 8.1 | NC(=O)c1c(F)cccc1Nc1nc(NC2CCN(S(=O)(=O)CCNC(=O)CCOCCOCCOCCOCCNc3cccc4c3C(=O)N(C3CCC(=O)NC3=O)C4=O)CC2)ncc1Br (stereo not drawn) [Compound 1, N-(2-((4-((5-bromo-4-((2-carbamoyl-3-fluorophenyl)amino)pyrimidin-2-yl)amino)piperidin-1-yl)sulfonyl)ethyl)-1-((2-(2,6-dioxopiperidin-3-yl)-1,3-dioxoisoindolin-4-yl)amino)-3,6,9,12-tetraoxapentadecan-15-amide] |
|  | 4.8 | Cc1ncsc1-c1ccc([C@H](C)NC(=O)[C@@H]2C[C@@H](O)CN2C(=O)[C@@H](NC(=O)CCOCCOCCC(=O)NCCS(=O)(=O)N2CCC(Nc3ncc(Br)c(Nc4cccc(F)c4C(N)=O)n3)CC2)C(C)(C)C)cc1 [Compound 11, (2S,4R)-1-((S)-16-((4-((5-bromo-4-((2-carbamoyl-3-fluorophenyl)amino)pyrimidin-2-yl)amino)piperidin-1-yl)sulfonyl)-2-(tert-butyl)-4,13-dioxo-7,10-dioxa-3,14-diazahexadecanoyl)-4-hydroxy-N—((S)-1-(4-(4-methylthiazol-5-yl)phenyl)ethyl)pyrrolidine-2-carboxamide] |
|  | 3.7 | Cc1ncsc1-c1ccc([C@H](C)NC(=O)[C@@H]2C[C@@H](O)CN2C(=O)[C@@H](NC(=O)CCC(=O)NCCS(=O)(=O)N2CCC(Nc3ncc(Br)c(Nc4cccc(F)c4C(N)=O)n3)CC2)C(C)(C)C)cc1 [Compound 12, N^1-(2-((4-((5-bromo-4-((2-carbamoyl-3-fluorophenyl)amino)pyrimidin-2-yl)amino)piperidin-1-yl)sulfonyl)ethyl)-N^4—((S)-1-((2S,4R)-4-hydroxy-2-(((S)-1-(4-(4-methylthiazol-5-yl)phenyl)ethyl)carbamoyl)pyrrolidin-1-yl)-3,3-dimethyl-1-oxobutan-2-yl)succinamide] |
